According to article PMC3578762, “Mutational Analysis of the High-Affinity Zinc Binding Site Validates a Refined Human Dopamine Transporter Homology Model” (PLoS Computational Biology, 2013):
Several values for one entry are separate records, joined by “and”; a condition that tells them apart may be missing. Equal entries are not always repeated. Where two headings read alike, the source gives them in different places.

Assays:
DAT (D206C) = target: T1, DAT (D206C) (Homo sapiens, UniProt Q01959, D206C); experiment: Zinc inhibition of [3H]MPP+ uptake in HEK293 cells transiently expressing DAT-D206C; format: cell-based
T1 construct: expressed in transfected cells; host or cells: HEK293 (transient, calcium phosphate)
Procedure: (§1) Wild-type human DAT was generously donated by Marc G. Caron; DAT H193K was a generous gift from Ulrik Gether. Wild-type and mutant DAT were YFP tagged at their N-terminus as described in Egana et al.. Mutagenesis was performed using the Quickchange Lightning Kit by Agilent Technologies. Primers were designed using the “quickchange primer design tool” by Agilent. Primers used were: D206K: (5′-3′): […]; D206C: (5′-3′): […].
(§2) HEK293 cells were cultured in Dulbecco's modified Eagle's medium (DMEM) with high glucose (4.5 g/liter) and L-glutamine (584 mg/liter), supplemented with 10% fetal calf serum (FCS), 100 units/ml penicillin and 100 µg/ml streptomycin. The cells were maintained at 37°C in a humidified atmosphere of 5% CO2/95% air on standard plastic culture ware. The cells were transiently transfected with 2–10 µg of plasmid DNA as required, using the calcium phosphate precipitation method.
(§3) Cells were seeded at 0.5×10^5 cells/ml into poly-D-lysine coated 48 well plates twenty-four hours after calcium phosphate transfection with either wild-type or mutant DAT. Uptakes were performed as described previously. In brief, the cell medium was aspirated and the cells were washed once with Krebs-HEPES buffer at room temperature. The washed cells were pre-incubated with Krebs-HEPES buffer in the presence of 0–10 mM ZnCl2 for 5 min at room temperature. In the first step of the assay, this buffer was replaced with Krebs-Hepes buffer containing the appropriate ZnCl2 concentration and 0.02 µM [^3H]MPP^+. After three minutes substrate uptake was stopped by exchange of the substrate containing buffer with ice-cold Krebs-Hepes buffer. […] Non-specific uptake was determined in the presence of 10 µM mazindol.
(§4) Uptake data are given by mean values ± S.E, obtained from n = 6–8 experiments. Total uptake data were corrected for non-specific uptake and expressed as a percentage of 0 mM ZnCl2 for each experiment. IC50 values were calculated for each mutant by performing non-linear regression analysis using PRISM version 4.0 (GraphPad Software, Inc., San Diego, CA).

DAT (D206E) = target: T2, DAT (D206E) (Homo sapiens, UniProt Q01959, D206E); experiment: Zinc inhibition of [3H]MPP+ uptake in HEK293 cells transiently expressing DAT-D206E; format: cell-based; settings: [3H]MPP+ uptake inhibition, mean ± S.E.
T2 construct: expressed in transfected cells; host or cells: HEK293 (transient, calcium phosphate)
Procedure: as §1
as §2, with “The cells were transiently transfected with 2–10 µg of plasmid DNA as required, using the calcium phosphate precipitation method.” left out
(§5) Cells were seeded at 0.5×10^5 cells/ml into poly-D-lysine coated 48 well plates twenty-four hours after calcium phosphate transfection with either wild-type or mutant DAT. […] Non-specific uptake was determined in the presence of 10 µM mazindol.
as §4

DAT (D206A) = target: T3, DAT (D206A) (Homo sapiens, UniProt Q01959, D206A); experiment: Zinc inhibition of [3H]MPP+ uptake in HEK293 cells transiently expressing DAT-D206A; format: cell-based; settings: [3H]MPP+ uptake inhibition, mean ± S.E.
T3 construct: expressed in transfected cells; host or cells: HEK293 (transient, calcium phosphate)
Procedure: as §1
as §2, with “The cells were transiently transfected with 2–10 µg of plasmid DNA as required, using the calcium phosphate precipitation method.” left out
as §5, §4

DAT (wild-type) = target: T4, DAT (wild-type) (Homo sapiens, UniProt Q01959); experiment: Zinc inhibition of [3H]MPP+ uptake in HEK293 cells transiently expressing wild-type DAT; format: cell-based; settings: for IC50: [3H]MPP+ uptake inhibition, HEK293 cells, bi-phasic fit, mean ± S.E.
T4 construct: expressed in transfected cells; host or cells: HEK293 (transient, calcium phosphate)
Procedure: as §2
Cells were seeded at 0.5×10^5 cells/ml into poly-D-lysine coated 48 well plates twenty-four hours after calcium phosphate transfection with either wild-type or mutant DAT. Uptakes were performed as described previously. In brief, the cell medium was aspirated and the cells were washed once with Krebs-HEPES buffer at room temperature. The washed cells were pre-incubated with Krebs-HEPES buffer in the presence of 0–10 mM ZnCl2 for 5 min at room temperature. In the first step of the assay, this buffer was replaced with Krebs-Hepes buffer containing the appropriate ZnCl2 concentration and 0.02 µM [^3H]MPP^+. After three minutes substrate uptake was stopped by exchange of the substrate containing buffer with ice-cold Krebs-Hepes buffer. The cells were lysed in 1% SDS and transferred to scintillation vials. Scintillation cocktail was added and the vials were assayed for [^3H] content by liquid scintillation counting. Non-specific uptake was determined in the presence of 10 µM mazindol.
as §4

DAT = system: DAT; design: method as in PMID 9687495, PMID 8423763; settings: synaptosomes and heterologous expression systems; cited from earlier work
DAT (H193K) = target: T5, DAT (H193K) (Homo sapiens, UniProt Q01959, H193K); experiment: Zinc inhibition of [3H]MPP+ uptake in HEK293 cells transiently expressing DAT-H193K; format: cell-based; settings: [3H]MPP+ uptake inhibition, homogeneous (mono-phasic) inhibition curve, mean ± S.E., read-out: Low-affinity site: IC50 (Zn^2+)
T5 construct: expressed in transfected cells; host or cells: HEK293 (transient, calcium phosphate)
Procedure: as §1
as §2, with “The cells were transiently transfected with 2–10 µg of plasmid DNA as required, using the calcium phosphate precipitation method.” left out
as §5, §4

DAT (D206K) = target: T6, DAT (D206K) (Homo sapiens, UniProt Q01959, D206K); experiment: Zinc inhibition of [3H]MPP+ uptake in HEK293 cells transiently expressing DAT-D206K; format: cell-based; settings: for IC50: [3H]MPP+ uptake inhibition, HEK293 cells, DAT D206K, mean ± S.E.
T6 construct: expressed in transfected cells; host or cells: HEK293 (transient, calcium phosphate)
Procedure: as §1, §2, §3, §4

[1] = read-out: High-affinity site: IC50 (Zn^2+)
[2] = read-out: Low-affinity site: IC50 (Zn^2+)

T6 sequence (Q01959 whole entry D206K): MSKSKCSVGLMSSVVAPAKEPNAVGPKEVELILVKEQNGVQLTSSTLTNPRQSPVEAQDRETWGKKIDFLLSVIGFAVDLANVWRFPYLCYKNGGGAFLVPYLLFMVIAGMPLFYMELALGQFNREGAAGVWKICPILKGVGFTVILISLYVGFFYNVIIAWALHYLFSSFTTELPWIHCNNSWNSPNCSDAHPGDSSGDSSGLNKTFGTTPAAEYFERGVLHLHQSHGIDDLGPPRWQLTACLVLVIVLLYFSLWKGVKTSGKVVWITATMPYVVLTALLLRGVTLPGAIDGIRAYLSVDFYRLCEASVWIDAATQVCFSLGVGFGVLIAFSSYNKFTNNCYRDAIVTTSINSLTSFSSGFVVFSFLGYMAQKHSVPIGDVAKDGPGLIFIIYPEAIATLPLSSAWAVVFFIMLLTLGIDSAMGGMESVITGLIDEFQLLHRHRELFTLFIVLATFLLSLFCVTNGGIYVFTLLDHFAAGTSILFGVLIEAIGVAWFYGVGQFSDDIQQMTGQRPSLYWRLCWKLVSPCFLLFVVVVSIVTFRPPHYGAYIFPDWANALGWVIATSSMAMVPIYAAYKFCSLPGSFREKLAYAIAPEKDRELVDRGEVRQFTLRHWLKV
T4 sequence (Q01959 whole entry): as the sequence (Q01959 whole entry D206K) above, with K206D counted along it
T1 sequence (Q01959 whole entry D206C): as the sequence (Q01959 whole entry D206K) above, with K206C counted along it
T2 sequence (Q01959 whole entry D206E): as the sequence (Q01959 whole entry D206K) above, with K206E counted along it
T3 sequence (Q01959 whole entry D206A): as the sequence (Q01959 whole entry D206K) above, with K206A counted along it
T5 sequence (Q01959 whole entry H193K): as the sequence (Q01959 whole entry D206K) above, with H193K, K206D counted along it

For `[Zn+2]` [zinc], the “Inhibition of transport upon saturation of the high affinity site” value (DAT (D206C); DAT-D206C, [3H]MPP+ uptake, HEK293 cells) was “almost complete inhibition of transport”, the “Occupancy of the high affinity site predicted” value (DAT (D206C); DAT-D206C, at 250 µM zinc) was 99% and the IC50 (DAT (D206C); [3H]MPP+ uptake inhibition, HEK293 cells, DAT D206C, mean ± S.E., read-out: High-affinity site: IC50 (Zn^2+)) was 6.81 ± 1.4 µM. For the same compound, the IC50 (DAT (D206E); [1]) was 1.22 ± 0.3 µM, the IC50 (DAT (D206E); [2]) was 857 ± 76 µM and the IC50 (DAT (D206A); [1]) was 0.79 ± 0.1 µM. The IC50 (DAT (D206A); [2]) was 219 ± 14 µM, the IC50 (DAT (wild-type); [1]) was 1 µM and 0.91 µM and the IC50 (DAT (wild-type); [2]) was 798 ± 84 µM. The “Reduction of the transport rate of DAT upon zinc binding” value (DAT (wild-type); zinc bound to high-affinity site) was roughly 50%, the “IC50 of inhibition of dopamine re-uptake” value (DAT) was “low µM range” and the IC50 (DAT (H193K)) was 102 ± 8 µM. For the same compound, the “Reduction of inhibitory potency of zinc on the high-affinity component versus wild-type” value (DAT (D206K); DAT-D206K versus wild-type DAT) was “approximately three fold”, the IC50 (DAT (D206K); [1]) was 2.54 ± 0.8 µM and the IC50 (DAT (D206K); [2]) was 682 ± 100 µM.
